Results reported in ChEMBL document CHEMBL4507286 (2021).

Key:
[1] = molecular target: Cyclin-dependent kinase 14 (Homo sapiens) (UniProt O94921)
[2] = molecular target: Mitogen-activated protein kinase kinase kinase 1 (Homo sapiens) (UniProt Q13233)
[3] = molecular target: Mitogen-activated protein kinase kinase kinase 7 (Homo sapiens) (UniProt O43318)
[4] = molecular target: 5-hydroxytryptamine receptor 3A (Homo sapiens) (UniProt P46098); conditions: Compound concentration 10.0 uM
[5] = molecular target: AP2-associated protein kinase 1 (Homo sapiens) (UniProt Q2M2I8)
[6] = molecular target: Phosphatidylinositol 4,5-bisphosphate 3-kinase catalytic subunit beta isoform (Homo sapiens) (UniProt P42338)
[7] = molecular target: Proto-oncogene tyrosine-protein kinase Src (Homo sapiens) (UniProt P12931)
[8] = molecular target: NT-3 growth factor receptor (Homo sapiens) (UniProt Q16288)
[9] = molecular target: Rhodopsin kinase GRK7 (Homo sapiens) (UniProt Q8WTQ7)
[10] = molecular target: Myosin-IIIa (Homo sapiens) (UniProt Q8NEV4)
[11] = molecular target: Cyclin-dependent kinase 17 (Homo sapiens) (UniProt Q00537)
[12] = test system: Epidermal growth factor receptor (Homo sapiens), P00533 [L861Q]
[13] = molecular target: Macrophage colony-stimulating factor 1 receptor (Homo sapiens) (UniProt P07333)
[14] = molecular target: Cyclin-dependent kinase 18 (Homo sapiens) (UniProt Q07002)
[15] = molecular target: Serine/threonine-protein kinase Nek4 (Homo sapiens) (UniProt P51957)
[16] = molecular target: Activin receptor type-1 (Homo sapiens) (UniProt Q04771)
[17] = molecular target: Serine/threonine-protein kinase 38 (Homo sapiens) (UniProt Q15208)
[18] = test system: Tyrosine-protein kinase ABL1 (Homo sapiens), P00519 [F317L]
[19] = molecular target: Ribosomal protein S6 kinase alpha-5 (Homo sapiens) (UniProt O75582)
[20] = test system: Phosphatidylinositol 4,5-bisphosphate 3-kinase catalytic subunit alpha isoform (Homo sapiens), P42336 [E542K]
[21] = molecular target: TGF-beta receptor type-1 (Homo sapiens) (UniProt P36897)
[22] = molecular target: Insulin receptor (Homo sapiens) (UniProt P06213)
[23] = molecular target: Serine/threonine-protein kinase MARK1 (Homo sapiens) (UniProt Q9P0L2)
[24] = molecular target: Mitogen-activated protein kinase kinase kinase 19 (Homo sapiens) (UniProt Q56UN5)
[25] = molecular target: Activated CDC42 kinase 1 (Homo sapiens) (UniProt Q07912)
[26] = molecular target: Muscarinic acetylcholine receptor M5 (Homo sapiens) (UniProt P08912); conditions: Compound concentration 10.0 uM
[27] = molecular target: Glycogen synthase kinase-3 alpha (Homo sapiens, UniProt P49840)
[28] = molecular target: Peripheral plasma membrane protein CASK (Homo sapiens) (UniProt O14936)
[29] = molecular target: Non-receptor tyrosine-protein kinase TYK2 (Homo sapiens) (UniProt P29597)
[30] = molecular target: GABA-A receptor; anion channel (Rattus norvegicus) (UniProt O09028+P15431+P18506+P18508+P19969+P20236+P23574+P23576+P28471+P28473+P30191+P62813+P63079+P63138+Q91ZM7+Q9ES14); conditions: Compound concentration 10.0 uM
[31] = molecular target: SRSF protein kinase 1 (Homo sapiens) (UniProt Q96SB4)
[32] = molecular target: Serine/threonine-protein kinase SIK2 (Homo sapiens) (UniProt Q9H0K1)
[33] = test system: Tyrosine-protein kinase ABL1 (Homo sapiens), P00519 [H396P]
[34] = test system: Receptor-type tyrosine-protein kinase FLT3 (Homo sapiens), P36888 [UNDEFINED MUTATION]
[35] = molecular target: Serine/threonine-protein kinase Nek11 (Homo sapiens) (UniProt Q8NG66)
[36] = molecular target: Histamine H2 receptor (Homo sapiens) (UniProt P25021); conditions: Compound concentration 10.0 uM
[37] = molecular target: Casein kinase I isoform epsilon (Homo sapiens) (UniProt P49674)
[38] = test system: Tyrosine-protein kinase ABL1 (Homo sapiens), P00519 [F317I]
[39] = molecular target: Serine/threonine-protein kinase Nek2 (Homo sapiens) (UniProt P51955)
[40] = molecular target: Ephrin type-A receptor 8 (Homo sapiens) (UniProt P29322)
[41] = molecular target: Serine/threonine-protein kinase TAO1 (Homo sapiens) (UniProt Q7L7X3)
[42] = molecular target: Mitogen-activated protein kinase kinase kinase kinase 2 (Homo sapiens) (UniProt Q12851)
[43] = test system: Phosphatidylinositol 4,5-bisphosphate 3-kinase catalytic subunit alpha isoform (Homo sapiens), P42336 [E545K]
[44] = molecular target: Phosphatidylinositol 3-kinase catalytic subunit type 3 (Homo sapiens) (UniProt Q8NEB9)
[45] = Compound concentration 1000.0 nM
[46] = Compound concentration 100.0 nM

Activin receptor type-1 (Homo sapiens), sequence (Q04771 whole entry): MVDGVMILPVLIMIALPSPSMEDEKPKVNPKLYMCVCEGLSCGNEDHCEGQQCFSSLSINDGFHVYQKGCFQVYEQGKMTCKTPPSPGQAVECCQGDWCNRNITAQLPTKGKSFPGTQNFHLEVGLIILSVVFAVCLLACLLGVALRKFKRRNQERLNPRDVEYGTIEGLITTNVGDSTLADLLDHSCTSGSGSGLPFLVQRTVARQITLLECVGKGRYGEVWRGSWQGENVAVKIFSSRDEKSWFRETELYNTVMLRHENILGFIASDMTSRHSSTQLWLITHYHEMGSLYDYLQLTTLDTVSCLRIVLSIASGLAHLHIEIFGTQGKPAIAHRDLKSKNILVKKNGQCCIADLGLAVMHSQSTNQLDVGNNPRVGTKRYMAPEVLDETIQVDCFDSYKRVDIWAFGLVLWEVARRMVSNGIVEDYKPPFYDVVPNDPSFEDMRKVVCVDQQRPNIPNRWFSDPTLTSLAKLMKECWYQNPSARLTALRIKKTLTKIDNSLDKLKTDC
Phosphatidylinositol 4,5-bisphosphate 3-kinase catalytic subunit alpha isoform (Homo sapiens), P42336 [E545K], sequence (P42336 whole entry E545K, canonical isoform): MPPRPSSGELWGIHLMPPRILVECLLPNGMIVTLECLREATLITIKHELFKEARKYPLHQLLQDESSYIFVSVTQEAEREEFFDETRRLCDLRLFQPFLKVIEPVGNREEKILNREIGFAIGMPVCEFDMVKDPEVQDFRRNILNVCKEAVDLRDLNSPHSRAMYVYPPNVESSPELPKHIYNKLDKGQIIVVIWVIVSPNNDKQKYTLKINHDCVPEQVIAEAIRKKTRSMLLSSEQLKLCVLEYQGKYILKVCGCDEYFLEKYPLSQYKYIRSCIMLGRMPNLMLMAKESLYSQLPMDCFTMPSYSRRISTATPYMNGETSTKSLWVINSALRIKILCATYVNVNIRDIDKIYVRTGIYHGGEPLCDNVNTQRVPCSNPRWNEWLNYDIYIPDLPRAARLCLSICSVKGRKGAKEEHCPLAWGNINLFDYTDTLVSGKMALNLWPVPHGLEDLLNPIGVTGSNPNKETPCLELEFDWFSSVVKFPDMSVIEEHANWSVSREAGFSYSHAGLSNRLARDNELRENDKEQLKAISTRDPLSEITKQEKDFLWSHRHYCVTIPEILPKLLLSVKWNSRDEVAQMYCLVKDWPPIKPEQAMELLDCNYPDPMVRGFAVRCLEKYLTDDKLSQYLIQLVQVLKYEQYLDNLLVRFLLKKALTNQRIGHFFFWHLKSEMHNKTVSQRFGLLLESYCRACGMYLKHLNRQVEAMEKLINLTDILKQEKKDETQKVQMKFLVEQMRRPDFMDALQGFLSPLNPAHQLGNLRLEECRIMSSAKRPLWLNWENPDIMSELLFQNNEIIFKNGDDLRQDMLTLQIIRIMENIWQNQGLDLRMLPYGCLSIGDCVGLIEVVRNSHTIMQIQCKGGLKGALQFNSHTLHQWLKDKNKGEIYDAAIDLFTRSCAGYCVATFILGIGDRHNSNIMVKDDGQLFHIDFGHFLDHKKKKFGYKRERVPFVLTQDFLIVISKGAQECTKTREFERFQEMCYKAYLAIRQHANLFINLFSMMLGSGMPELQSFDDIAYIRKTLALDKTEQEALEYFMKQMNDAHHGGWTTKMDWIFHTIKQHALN
Histamine H2 receptor (Homo sapiens), sequence (P25021 whole entry, canonical isoform): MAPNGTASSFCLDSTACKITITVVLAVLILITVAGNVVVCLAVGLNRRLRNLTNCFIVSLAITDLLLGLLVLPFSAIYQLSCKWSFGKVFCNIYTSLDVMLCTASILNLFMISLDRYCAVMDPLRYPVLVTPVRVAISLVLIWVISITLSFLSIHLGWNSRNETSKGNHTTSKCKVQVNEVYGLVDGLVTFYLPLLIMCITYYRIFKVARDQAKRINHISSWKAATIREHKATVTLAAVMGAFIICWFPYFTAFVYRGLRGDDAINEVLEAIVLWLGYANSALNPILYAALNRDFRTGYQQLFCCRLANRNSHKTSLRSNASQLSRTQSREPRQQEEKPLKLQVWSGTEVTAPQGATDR
Non-receptor tyrosine-protein kinase TYK2 (Homo sapiens), sequence (P29597 whole entry): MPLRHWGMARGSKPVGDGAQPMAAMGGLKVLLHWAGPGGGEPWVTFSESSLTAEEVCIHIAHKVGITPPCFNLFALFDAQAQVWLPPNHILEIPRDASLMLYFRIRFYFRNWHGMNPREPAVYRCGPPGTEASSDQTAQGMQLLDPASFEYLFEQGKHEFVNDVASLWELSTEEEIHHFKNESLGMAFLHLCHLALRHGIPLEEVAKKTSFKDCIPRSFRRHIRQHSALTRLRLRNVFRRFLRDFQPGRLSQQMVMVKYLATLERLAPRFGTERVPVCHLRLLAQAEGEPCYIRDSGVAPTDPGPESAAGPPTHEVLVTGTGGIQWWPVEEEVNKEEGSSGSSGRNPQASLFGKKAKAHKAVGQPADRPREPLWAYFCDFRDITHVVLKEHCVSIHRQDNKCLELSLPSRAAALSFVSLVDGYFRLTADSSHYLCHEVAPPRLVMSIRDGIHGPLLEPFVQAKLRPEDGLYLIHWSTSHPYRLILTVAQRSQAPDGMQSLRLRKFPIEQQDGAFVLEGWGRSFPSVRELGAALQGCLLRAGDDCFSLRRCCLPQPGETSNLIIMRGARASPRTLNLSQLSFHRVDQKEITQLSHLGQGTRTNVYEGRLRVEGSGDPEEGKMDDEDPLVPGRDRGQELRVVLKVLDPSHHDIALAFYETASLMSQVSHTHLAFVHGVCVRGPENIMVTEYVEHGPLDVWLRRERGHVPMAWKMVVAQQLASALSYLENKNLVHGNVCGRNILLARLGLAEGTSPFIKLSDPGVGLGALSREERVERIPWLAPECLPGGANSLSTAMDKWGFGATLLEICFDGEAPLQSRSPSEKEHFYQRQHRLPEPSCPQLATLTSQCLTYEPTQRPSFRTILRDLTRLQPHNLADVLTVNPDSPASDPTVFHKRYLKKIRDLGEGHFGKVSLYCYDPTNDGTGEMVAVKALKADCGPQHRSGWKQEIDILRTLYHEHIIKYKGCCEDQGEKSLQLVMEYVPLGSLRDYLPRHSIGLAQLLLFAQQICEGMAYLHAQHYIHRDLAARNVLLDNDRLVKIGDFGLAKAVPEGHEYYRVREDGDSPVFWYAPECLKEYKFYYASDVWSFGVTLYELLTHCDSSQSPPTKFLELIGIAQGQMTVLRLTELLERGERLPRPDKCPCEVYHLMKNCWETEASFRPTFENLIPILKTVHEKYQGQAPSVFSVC
Serine/threonine-protein kinase Nek11 (Homo sapiens), sequence (Q8NG66 whole entry): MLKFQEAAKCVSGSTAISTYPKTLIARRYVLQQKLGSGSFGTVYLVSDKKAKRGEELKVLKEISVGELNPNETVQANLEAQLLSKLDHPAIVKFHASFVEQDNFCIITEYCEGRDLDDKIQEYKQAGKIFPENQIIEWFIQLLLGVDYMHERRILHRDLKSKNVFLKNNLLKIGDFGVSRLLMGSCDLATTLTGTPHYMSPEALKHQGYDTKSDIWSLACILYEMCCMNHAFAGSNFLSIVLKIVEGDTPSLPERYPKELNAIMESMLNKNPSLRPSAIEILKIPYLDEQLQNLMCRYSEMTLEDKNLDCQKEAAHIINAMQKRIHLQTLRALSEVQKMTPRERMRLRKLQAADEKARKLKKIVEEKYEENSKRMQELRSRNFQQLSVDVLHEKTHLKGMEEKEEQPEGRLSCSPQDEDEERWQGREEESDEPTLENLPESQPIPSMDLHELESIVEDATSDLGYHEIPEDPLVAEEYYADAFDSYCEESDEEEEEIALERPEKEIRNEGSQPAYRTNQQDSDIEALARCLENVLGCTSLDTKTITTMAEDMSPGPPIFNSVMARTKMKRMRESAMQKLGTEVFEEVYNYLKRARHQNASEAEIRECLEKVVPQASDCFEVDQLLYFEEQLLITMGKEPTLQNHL
Macrophage colony-stimulating factor 1 receptor (Homo sapiens), sequence (P07333 whole entry): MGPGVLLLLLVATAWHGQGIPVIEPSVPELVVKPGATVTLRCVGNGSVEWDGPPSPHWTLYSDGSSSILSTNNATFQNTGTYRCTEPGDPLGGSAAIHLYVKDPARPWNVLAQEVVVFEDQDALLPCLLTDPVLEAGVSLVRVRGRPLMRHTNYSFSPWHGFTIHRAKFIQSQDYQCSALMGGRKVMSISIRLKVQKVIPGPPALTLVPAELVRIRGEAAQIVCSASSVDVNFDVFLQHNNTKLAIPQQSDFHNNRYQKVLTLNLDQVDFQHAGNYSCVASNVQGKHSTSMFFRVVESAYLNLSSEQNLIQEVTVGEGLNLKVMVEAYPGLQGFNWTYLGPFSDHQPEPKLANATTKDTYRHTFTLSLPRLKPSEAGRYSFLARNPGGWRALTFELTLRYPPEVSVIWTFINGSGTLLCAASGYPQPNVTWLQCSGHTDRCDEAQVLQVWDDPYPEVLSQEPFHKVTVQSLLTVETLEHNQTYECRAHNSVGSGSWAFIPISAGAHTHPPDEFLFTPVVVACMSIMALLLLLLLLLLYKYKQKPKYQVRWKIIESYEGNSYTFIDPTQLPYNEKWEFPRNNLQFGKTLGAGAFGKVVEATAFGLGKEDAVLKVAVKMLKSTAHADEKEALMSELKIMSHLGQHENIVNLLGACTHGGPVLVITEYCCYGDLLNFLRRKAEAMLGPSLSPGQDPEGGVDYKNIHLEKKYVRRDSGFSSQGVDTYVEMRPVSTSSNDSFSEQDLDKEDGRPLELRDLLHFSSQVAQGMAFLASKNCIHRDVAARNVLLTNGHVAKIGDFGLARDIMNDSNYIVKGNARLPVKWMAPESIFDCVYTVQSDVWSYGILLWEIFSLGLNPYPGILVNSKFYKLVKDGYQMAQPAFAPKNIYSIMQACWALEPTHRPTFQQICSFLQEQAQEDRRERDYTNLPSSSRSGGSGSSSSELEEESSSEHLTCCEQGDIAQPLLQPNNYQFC
Phosphatidylinositol 4,5-bisphosphate 3-kinase catalytic subunit alpha isoform (Homo sapiens), P42336 [E542K], sequence (P42336 whole entry E542K, canonical isoform): as the sequence (P42336 whole entry E545K, canonical isoform) above, with E542K, K545E counted along it

C[C@H](NC(=O)Nc1cc2[nH]ncc2c(CO)n1)c1ccccn1 [ERKi-NC]
inactive: residual activity [1, 45] 100% | residual activity [2, 45] 95.1% | residual activity [3, 45] 100% | inhibition [4] -0.282% | residual activity [5, 45] 100% | residual activity [6, 45] 100% | residual activity [7, 45] 100% | residual activity [8, 45] 85.4% | residual activity [9, 45] 100% | residual activity [10, 45] 100% | residual activity [11, 45] 78% | residual activity [12, 45] 100% | residual activity [13, 45] 94.8% | residual activity [14, 45] 100% | residual activity [15, 45] 83.9% | residual activity [16, 45] 81.8% | residual activity [17, 45] 81.4% | residual activity [18, 45] 100% | residual activity [19, 45] 100% | residual activity [20, 45] 76.7% | residual activity [21, 45] 60.8% | residual activity [22, 45] 100% | residual activity [23, 45] 78.7% | residual activity [24, 45] 100% | residual activity [25, 45] 100% | inhibition [26] 7.22% | residual activity [27, 45] 100% | residual activity [28, 45] 60.8% | residual activity [29, 45] 100% | inhibition [30] 20.2% | residual activity [31, 45] 100% | residual activity [32, 45] 94% | residual activity [33, 45] 72.5% | residual activity [34, 45] 73.5% | residual activity [35, 45] 57.7% | inhibition [36] 3.05% | residual activity [37, 45] 96.1% | residual activity [38, 45] 100% | residual activity [39, 45] 96.9% | residual activity [40, 45] 100% | residual activity [41, 45] 100% | residual activity [42, 45] 100% | residual activity [43, 45] 74.9% | residual activity [44, 45] 97%

C[C@@H](NC(=O)Nc1cc2[nH]ncc2c(CO)n1)c1ccccc1 [ERKi]
inactive: residual activity [1, 46] 100% | residual activity [2, 46] 100% | residual activity [3, 46] 82.6% | inhibition [4] 4.36% | residual activity [5, 46] 52.5% | residual activity [6, 46] 81.5% | residual activity [7, 46] 94.6% | residual activity [8, 46] 76.7% | residual activity [9, 46] 81.4% | residual activity [10, 46] 100% | residual activity [11, 46] 95.9% | residual activity [12, 46] 100% | residual activity [13, 46] 87.3% | residual activity [14, 46] 100% | residual activity [15, 46] 86.6% | residual activity [16, 46] 98.3% | residual activity [17, 46] 75.2% | residual activity [18, 46] 100% | residual activity [19, 46] 87.8% | residual activity [20, 46] 78.6% | residual activity [21, 46] 100% | residual activity [22, 46] 74.7% | residual activity [23, 46] 97% | residual activity [24, 46] 86.2% | residual activity [25, 46] 94.8% | inhibition [26] 35.8% | residual activity [27, 46] 88% | residual activity [28, 46] 89.7% | residual activity [29, 46] 97.8% | inhibition [30] 46.2% | residual activity [31, 46] 85.5% | residual activity [32, 46] 85.7% | residual activity [33, 46] 94.6% | residual activity [34, 46] 100% | residual activity [35, 46] 83.4% | inhibition [36] 11.8% | residual activity [37, 46] 95.1% | residual activity [38, 46] 80.2% | residual activity [39, 46] 100% | residual activity [40, 46] 89.8% | residual activity [41, 46] 66.4% | residual activity [42, 46] 78.3% | residual activity [43, 46] 80.5% | residual activity [44, 46] 71.2%
